These results are taken from ChEMBL document CHEMBL4823254, “Tetrahydroquinoline-Capped Histone Deacetylase 6 Inhibitor SW-101 Ameliorates Pathological Phenotypes in a Charcot-Marie-Tooth Type 2A Mouse Model” (J Med Chem, 2021).

Active and inactive are the calls of the source.

As usually defined, the AUC(0-inf) is the area under the concentration-time curve extrapolated to infinity. A lower AUC(0-inf) goes with less exposure. By IC50 is commonly meant the concentration that inhibits the measured activity by half. As usually defined, the Tmax is the time at which the peak concentration occurs. As a reminder, the Cmax is the maximum level reached in the sampled fluid or tissue.

Data set [1] is described as follows: Total AUC (0 to infinity) in C57BL/6J mouse brain at 15 mg/kg, ip. In kind it is ADME, organism-based. Further details: time AUCmax, route intraperitoneal, dose 15 mg/kg.
The test system of data set [2] is Mus musculus. Description: Neuroprotective activity in hMFN2-induced CMT2A transgenic mouse model assessed as increase in paw withdrawal threshold at 20 mg/kg, ip qd by von Frey test. In kind it is functional, organism-based.
Data set [3] concerns the target T1, Protein deacetylase HDAC6 (Homo sapiens, UniProt Q9UBN7).
T1 sequence (Q9UBN7 whole entry): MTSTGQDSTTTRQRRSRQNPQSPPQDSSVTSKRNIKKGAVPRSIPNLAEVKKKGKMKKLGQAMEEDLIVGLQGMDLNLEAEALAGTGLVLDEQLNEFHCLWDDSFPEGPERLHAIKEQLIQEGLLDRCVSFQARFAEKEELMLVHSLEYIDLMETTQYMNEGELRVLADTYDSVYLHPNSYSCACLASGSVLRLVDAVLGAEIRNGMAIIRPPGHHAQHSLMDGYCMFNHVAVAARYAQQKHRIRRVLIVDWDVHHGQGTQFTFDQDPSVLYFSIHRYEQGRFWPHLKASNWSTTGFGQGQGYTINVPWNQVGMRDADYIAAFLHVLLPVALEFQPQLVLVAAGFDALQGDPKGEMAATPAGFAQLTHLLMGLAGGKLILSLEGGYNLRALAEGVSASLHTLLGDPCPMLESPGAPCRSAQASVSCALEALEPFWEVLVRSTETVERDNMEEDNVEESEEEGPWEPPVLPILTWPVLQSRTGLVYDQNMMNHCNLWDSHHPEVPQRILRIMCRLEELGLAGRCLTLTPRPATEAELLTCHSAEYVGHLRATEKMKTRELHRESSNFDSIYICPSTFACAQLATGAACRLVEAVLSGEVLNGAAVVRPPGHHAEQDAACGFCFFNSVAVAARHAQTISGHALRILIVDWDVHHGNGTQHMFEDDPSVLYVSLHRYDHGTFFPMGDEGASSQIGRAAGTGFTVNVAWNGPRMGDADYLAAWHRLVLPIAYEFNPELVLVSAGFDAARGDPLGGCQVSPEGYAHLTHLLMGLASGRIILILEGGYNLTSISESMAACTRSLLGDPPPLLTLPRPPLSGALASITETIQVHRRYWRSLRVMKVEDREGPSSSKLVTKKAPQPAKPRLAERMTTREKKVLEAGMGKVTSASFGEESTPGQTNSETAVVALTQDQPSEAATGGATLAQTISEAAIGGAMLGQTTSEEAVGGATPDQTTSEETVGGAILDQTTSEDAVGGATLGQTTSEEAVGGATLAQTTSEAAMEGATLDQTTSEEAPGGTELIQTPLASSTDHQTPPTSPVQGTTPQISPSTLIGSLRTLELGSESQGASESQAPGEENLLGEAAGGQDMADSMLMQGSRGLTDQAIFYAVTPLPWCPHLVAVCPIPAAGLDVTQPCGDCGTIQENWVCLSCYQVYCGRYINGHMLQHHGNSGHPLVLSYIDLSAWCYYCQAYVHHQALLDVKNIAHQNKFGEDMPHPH
Description: Inhibition of Nanoluc-fused HDAC6 CD2 (unknown origin) expressed in HEK293 cells incubated for 2 hrs by NANOBRET assay

Data set [4] in a line: Genotoxicity in Salmonella typhimurium TA1537 at 5 to 100 uM in presence of liver S9 fraction by Ames test. Conditions: salmonella enterica subsp. enterica serovar typhimurium, s9, 100 µM; dose 5-100 µM. In kind it is toxicity. (The Ames test detects mutagens through reverse mutation in bacteria.)
The nature of data set [5]: Genotoxicity in Salmonella typhimurium TA98 at 5 to 100 uM in presence of liver S9 fraction by Ames test. In kind it is toxicity. To be noted: salmonella enterica subsp. enterica serovar typhimurium, s9, 100 µM; dose 5-100 µM.
Data set [6] relates to Mus musculus. The data set is described as follows: Neuroprotective activity in hMFN2-induced CMT2A transgenic mouse model assessed as increase in paw withdrawal latency at 20 mg/kg, ip qd by von Frey test. In kind it is functional, organism-based.
Data set [7] can be described thus: Tmax in C57BL/6J mouse brain at 15 mg/kg, ip. In kind it is ADME, organism-based.
Data set [8] is described as follows: Cmax in C57BL/6J mouse brain at 15 mg/kg, ip. In kind it is ADME, organism-based. Set-up: route intraperitoneal, dose 15 mg/kg.
A further data set has as its target Histone deacetylase 1 (Homo sapiens, UniProt Q13547).
For data set [9], the target named is T2, Protein deacetylase HDAC6 (Mus musculus) (UniProt Q9Z2V5).
T2 sequence (whole entry): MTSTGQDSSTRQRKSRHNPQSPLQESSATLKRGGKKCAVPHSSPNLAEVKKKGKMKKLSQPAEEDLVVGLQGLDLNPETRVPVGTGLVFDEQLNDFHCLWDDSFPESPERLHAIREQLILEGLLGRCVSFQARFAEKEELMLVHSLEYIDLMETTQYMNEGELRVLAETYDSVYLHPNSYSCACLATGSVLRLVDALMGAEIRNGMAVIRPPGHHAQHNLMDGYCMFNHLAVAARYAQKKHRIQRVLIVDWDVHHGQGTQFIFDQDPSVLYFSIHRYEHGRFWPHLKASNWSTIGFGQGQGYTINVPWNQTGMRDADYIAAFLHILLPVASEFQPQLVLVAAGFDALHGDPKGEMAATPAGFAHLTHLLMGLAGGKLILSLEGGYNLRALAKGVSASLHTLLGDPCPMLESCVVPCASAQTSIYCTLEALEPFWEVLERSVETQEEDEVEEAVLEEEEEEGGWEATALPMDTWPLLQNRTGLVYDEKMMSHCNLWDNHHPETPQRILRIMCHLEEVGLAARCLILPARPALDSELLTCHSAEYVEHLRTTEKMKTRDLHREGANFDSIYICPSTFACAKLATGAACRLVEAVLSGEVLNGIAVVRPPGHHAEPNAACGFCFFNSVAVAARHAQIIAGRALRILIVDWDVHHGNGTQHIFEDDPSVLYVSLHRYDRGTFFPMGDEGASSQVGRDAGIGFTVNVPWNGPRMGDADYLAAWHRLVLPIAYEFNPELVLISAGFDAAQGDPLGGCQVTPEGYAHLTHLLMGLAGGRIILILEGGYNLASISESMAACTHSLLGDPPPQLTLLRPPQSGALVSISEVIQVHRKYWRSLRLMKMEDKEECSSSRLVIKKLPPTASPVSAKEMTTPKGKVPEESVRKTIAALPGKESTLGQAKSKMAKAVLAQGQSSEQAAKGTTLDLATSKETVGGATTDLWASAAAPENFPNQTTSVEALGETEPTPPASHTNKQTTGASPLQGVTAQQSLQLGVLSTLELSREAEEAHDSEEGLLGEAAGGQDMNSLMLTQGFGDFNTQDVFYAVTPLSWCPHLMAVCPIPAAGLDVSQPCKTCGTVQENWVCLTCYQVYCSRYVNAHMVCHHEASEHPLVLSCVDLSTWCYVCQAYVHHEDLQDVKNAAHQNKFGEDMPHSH
Description: In vivo inhibition of HDAC6 in hMFN2-induced CMT2A transgenic mouse model assessed as increase in acetylated tubulin in distal sciatic nerve tissue at 20 mg/kg, ip qd administered for 22 weeks when treated prior with compound dissolved in PBS/PEG400/Tween80/EtOH (50/35/10/5) wt% as vehicle by Western blot analysis. In kind it is functional, organism-based.

In a further data set the target is Histone deacetylase 5 (Homo sapiens, UniProt Q9UQL6). The data set is described as follows: Inhibition of recombinant human HDAC5 using Boc-Lys(TFA)-AMC as substrate preincubated for 10 mins followed by substrate addition and measured after 30 mins by fluorescence-based assay.
Histone deacetylase 5, sequence (Q9UQL6 whole entry): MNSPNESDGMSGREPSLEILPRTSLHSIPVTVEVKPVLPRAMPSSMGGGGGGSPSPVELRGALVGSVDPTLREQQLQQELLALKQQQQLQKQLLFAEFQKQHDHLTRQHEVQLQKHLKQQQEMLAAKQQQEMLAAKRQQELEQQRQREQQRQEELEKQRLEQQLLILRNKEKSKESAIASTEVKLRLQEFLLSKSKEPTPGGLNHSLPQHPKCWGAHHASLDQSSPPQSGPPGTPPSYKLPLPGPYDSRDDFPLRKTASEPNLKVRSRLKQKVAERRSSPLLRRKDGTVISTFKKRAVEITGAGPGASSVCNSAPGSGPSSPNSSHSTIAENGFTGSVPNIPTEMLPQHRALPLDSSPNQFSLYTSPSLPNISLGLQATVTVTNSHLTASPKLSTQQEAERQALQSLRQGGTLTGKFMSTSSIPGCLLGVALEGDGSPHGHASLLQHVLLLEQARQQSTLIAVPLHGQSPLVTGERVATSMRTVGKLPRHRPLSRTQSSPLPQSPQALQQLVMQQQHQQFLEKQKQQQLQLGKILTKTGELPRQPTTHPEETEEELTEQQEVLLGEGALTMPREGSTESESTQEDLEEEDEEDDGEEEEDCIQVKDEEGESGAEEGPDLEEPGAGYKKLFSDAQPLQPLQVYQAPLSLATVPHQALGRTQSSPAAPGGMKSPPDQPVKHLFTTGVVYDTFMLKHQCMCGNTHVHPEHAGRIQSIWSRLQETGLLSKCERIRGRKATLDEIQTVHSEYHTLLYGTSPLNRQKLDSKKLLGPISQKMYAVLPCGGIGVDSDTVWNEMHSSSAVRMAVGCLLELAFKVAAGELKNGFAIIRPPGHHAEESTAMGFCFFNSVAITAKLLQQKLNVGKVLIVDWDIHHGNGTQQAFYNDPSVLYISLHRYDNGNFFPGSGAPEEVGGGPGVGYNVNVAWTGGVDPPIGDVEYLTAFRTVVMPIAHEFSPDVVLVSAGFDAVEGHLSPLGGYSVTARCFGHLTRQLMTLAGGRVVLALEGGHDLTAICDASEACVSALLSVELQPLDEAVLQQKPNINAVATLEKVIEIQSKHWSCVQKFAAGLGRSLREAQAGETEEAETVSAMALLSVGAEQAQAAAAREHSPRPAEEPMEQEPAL

Histone deacetylase 1, sequence (Q13547 whole entry): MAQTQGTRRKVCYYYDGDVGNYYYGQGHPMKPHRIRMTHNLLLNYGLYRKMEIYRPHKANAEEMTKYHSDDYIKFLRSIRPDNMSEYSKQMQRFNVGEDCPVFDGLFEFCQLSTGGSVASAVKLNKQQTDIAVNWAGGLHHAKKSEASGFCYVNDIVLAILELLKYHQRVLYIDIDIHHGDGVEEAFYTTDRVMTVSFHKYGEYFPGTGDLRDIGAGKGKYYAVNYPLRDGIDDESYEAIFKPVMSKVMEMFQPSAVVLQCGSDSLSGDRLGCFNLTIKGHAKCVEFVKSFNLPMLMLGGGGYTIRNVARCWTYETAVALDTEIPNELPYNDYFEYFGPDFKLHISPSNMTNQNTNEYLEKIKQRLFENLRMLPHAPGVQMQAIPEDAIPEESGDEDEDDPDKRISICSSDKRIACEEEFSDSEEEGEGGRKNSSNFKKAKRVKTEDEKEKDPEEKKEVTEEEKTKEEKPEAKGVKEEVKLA
Description for Histone deacetylase 1: Inhibition of recombinant human HDAC1 using Ac-GAK(Ac)-AMC as substrate preincubated for 10 mins followed by substrate addition and measured after 30 mins by fluorescence-based assay

Regarding `NC(=O)c1ccc2c(c1)CCCN2Cc1ccc(C(=O)NO)cc1`, the AUC(0-inf) in [1] is 280 ng·h/mL. Besides, the result with Mus musculus [2] and in the data set with Mus musculus [6] was Active. For the same compound, the IC50 in data set [3] was 1370 nM; against Histone deacetylase 1, 356 nM; on Histone deacetylase 5 it was 276 nM. Moreover, the Activity result in data set [4] and in [5] was “Non-Toxic” in each case. For the same compound, the Tmax in data set [7] was 15 min. Besides, the Cmax in data set [8] amounted to 223 ng/mL. In addition, the inhibition entry in data set [9] is “inactive”.
